# Reference: US9872919B2, “Prodrugs for selective anticancer therapy” (THE RESEARCH FOUNDATION FOR THE STATE UNIVERSITY OF NEW YORK, priority 2012, dated 2018)
# Where a SMILES comes first, the peptide text is derived from it. The star is where a group is joined. Cbz = O=C(OCc1ccccc1)*
# Tests used:
# cathepsin L (CTSL) = assay: Live cell lysyl endopeptidase assay with Boc-Lys-AMC; type: cell-based; settings: Z-FY-CHO 100 μM, live cells, all cases tested
# Method: FIG. 2. Comparative live cell lysyl endopeptidase activity of the same cell lines as in FIG. 1 using substrate Boc-Lys-AMC either with vehicle control DMSO or Z-FY-CHO (100 μM). Data represent mean values of triplicate measurements±s.d. RFU, relative fluorescent units.
# Tissue culture based standard HDAC assays were performed by commercially available fluorimetric HDAC assay kit (SensoLyte, AnaSpec) according to the manufacturer's instruction with modification of using 25 μM Boc-Lys(Ac)-AMC (Bachem) as substrate and measuring parameter (Ex/Em=355 nm/460 nm) for AMC. Basically, HDAC substrate 25 μM Boc-Lys(Ac)-AMC [either with DMSO or 1 μM TSA (Sigma)] was applied to the overnight culture seeded from 6×10^4 cells in 100 μl medium in 96-well tissue culture plates, followed by 2 to 3 h incubation at 37° C. with 5% CO2 atmosphere. […] After 15 m incubation at room temperature, the fluorescent signal of AMC was measured by SpectraMax M5 microplate reader (Molecular Devices) at Ex/Em=355 nm/460 nm. Live cell lysyl endopeptidase assay was performed by applying the substrate 25 μM Boc-Lys-AMC (Bachem) [either with DMSO or 100 μM Z-FY-CHO (EMD)] to the overnight culture seeded from 6×10^4 cells in 100 μl medium in 96-well tissue culture plates, followed by 20 h incubation at 37° C. with 5% CO2 atmosphere, then the fluorescent signal of AMC was measured. […]
# [1] = system: HDAC and cathepsin L in BxPC3 and CFPac-1 cells; assay: Live cell enzymatic assay with Boc-Lys(Ac)-AMC in pancreatic cancer cells; type: cell-based, human; settings: for activation of substrate Boc-Lys(Ac)-AMC (AMC release): 6 hr, Z-FY-CHO 10 μM
# Method: FIG. 5. A. HDAC assay using different substrates in BxPC3 cells (shGFP and shSki). Cells were incubated with Boc-Lys(Ac)-AMC or Ac-Arg-Gly-Lys(Ac)-AMC (25 μM) for 1 hr with DMSO (vehicle) or TSA (1 μM) as indicated, followed by cell lysis and trypsin treatment, and fluorescence measurements. Data represent mean values of triplicate measurements±standard deviation. RFU, relative fluorescent units. B. Similar experiment was done as in A but without cell lysis and trypsin treatment. Cells were incubated with the substrates for 2.5 hr.
# FIG. 6. A. Release of AMC by combined HDAC and endogenous protease-dependent enzymatic reaction in BxPC3 and CFPac-1 cells (shGFP and shSki). Cells were incubated with substrate Boc-Lys(Ac)-AMC (25 μM) for 6 hr with DMSO (vehicle), TSA (1 μM), or Z-FY-CHO (10 μM) as indicated, followed by fluorescence measurements. Data represent mean values of triplicate measurements±standard deviation. RFU, relative fluorescent units. B. Time course of AMC release in BxPC3 cells (shGFP and shSki). Each cells were incubated with Boc-Lys(Ac)-AMC (25 μM) for 2.5, 6.0, and 23 hr with DMSO (vehicle) or TSA (1 μM) as indicated.
# Tissue culture based standard HDAC assays were performed by commercially available fluorimetric HDAC assay kit (SensoLyte, AnaSpec) according to the manufacturer's instruction with modification of using 25 μM Boc-Lys(Ac)-AMC (Bachem) as substrate and measuring parameter (Ex/Em=355 nm/460 nm) for AMC. Basically, HDAC substrate 25 μM Boc-Lys(Ac)-AMC [either with DMSO or 1 μM TSA (Sigma)] was applied to the overnight culture seeded from 6×10^4 cells in 100 μl medium in 96-well tissue culture plates, followed by 2 to 3 h incubation at 37° C. with 5% CO2 atmosphere. Then the deacetylation reaction was terminated by addition of HDAC developer solution containing cell lysis buffer and trypsin reagents. After 15 m incubation at room temperature, the fluorescent signal of AMC was measured by SpectraMax M5 microplate reader (Molecular Devices) at Ex/Em=355 nm/460 nm. Live cell lysyl endopeptidase assay was performed by applying the substrate 25 μM Boc-Lys-AMC (Bachem) [either with DMSO or 100 μM Z-FY-CHO (EMD)] to the overnight culture seeded from 6×10^4 cells in 100 μl medium in 96-well tissue culture plates, followed by 20 h incubation at 37° C. with 5% CO2 atmosphere, then the fluorescent signal of AMC was measured. Live cell enzymatic assay using Boc-Lys(Ac)-AMC was performed by applying the substrate 25 μM Boc-Lys(Ac)-AMC (either with DMSO, 1 μM TSA or 100 μM Z-FY-CHO) to the overnight culture seeded from 6×10^4 cells in 100 μl medium in 96-well tissue culture plates, followed by 20 h incubation at 37° C. with 5% CO2 atmosphere, then the fluorescent signal of AMC was measured. Experiments were repeated at least three times.
# [2] = system: BxPC3 shGFP control cells; assay: MTT cell viability assay, BxPC3 shGFP; type: cell-based; settings: Homo sapiens, BXPC-3, 72 hr
# Method: (§1) FIG. 24. Effect of the prodrug on cell viability of BxPC3 cells (shGFP and shSki). Cells were treated with the indicated dose of drugs (BKAc-5FCR or 5FCR) for 72 hr followed by MTT assay. Data represent mean values of triplicate measurements±standard deviation. IC50 values were derived from nonlinear curve fit of the dose response data using an outlier's exclusion, variable slope model (GraphPad Prism software). All values are means of at least two independent experiments.
# (§2) The in vitro efficacy of the compounds in a series of BxPC3 and CFPac-1 derivatives with reduced Class I HDAC activity following Ski knockdown (shSki), HDAC3 knockdown and control (shGFP) was assessed. The growth inhibitory/viability effects of the compounds (IC50 value, the concentration resulting in 50% growth inhibition) on the various cell lines were determined by dose response curve analysis (GraphPad Prism software) of MTT [3-(4,5dimethylthiazol-2-yl)-2,5-diphenyl-tetrazolium bromide] cell viability assay. If the prodrugs are activated in an HDAC-dependent manner, the cells with reduced HDAC activity would be predicted to be more resistant to the prodrug treatment than control cells, while the effect of free parental drugs on both cells would be expected to be similar.
# BXPC-3 cells = assay: MTS cell viability assay with or without TSA; type: cell-based, human; settings: 20 μM, 72 hr, with TSA (50 μM as printed)
# Method: FIG. 25. Selective cytotoxicity by BKAc-5FCR. Human pancreatic BXPC3 cells were treated with DMSO (vehicle), BKAc-5FCR (20 μM), or 5FCR (20 μM) for 72 hr with or without TSA (50 μM) followed by MTS cell viability assay. Representative phase contrast images of cells treated with DMSO (vehicle) or BKAc-5FCR (20 μM) for 72 hr with or without TSA (50 μM) are shown.
# BxPC3 shSki cells = assay: MTT cell viability assay, BxPC3 shSki; type: cell-based, human; settings: for difference in IC50 values shSki versus shGFP: BxPC3 shSki over shGFP; for IC50: Homo sapiens, BXPC-3, MTT, 72 hr, Ski knockdown
# Method: as §1, §2
# [3] = system: HCT116, HT29, CCD841-CoN and Caco-2 cells; assay: Cell killing by parental Puro (MTS); type: cell-based, human
# Method: FIG. 14. Inhibition of cell viability by parental Puro. The cell lines were treated with the indicated doses of Puro (0, 1.1, 2.1, 4.2, or 8.4 μM) for 3 d followed by MTS assay. Data represent mean values of triplicate mesurements±s.d.
# Cell number was determined by cell counting using improved Neubauer hemacytometer. Cell viability was calculated as the number of viable cells divided by the total number of cells using Trypan Blue Stain (Invitrogen) to distinguish non-viable cells. Data were obtained from duplicated samples with quadruplicate measurements. MTS based cell viability assay was performed using CellTiter 96 Aqueous Cell Proliferation Assay (Promega) according to the manufacturer's instruction. Either 1 μl of DMSO alone or variable concentrations of BKAc-Puro or Puro in DMSO were added to the cell lines seeded at 5×10^4 cells per well in 96-well tissue culture plates in 100 μl of the growth medium, followed by 3-5 d incubation at 37° C. with 5% CO2 atmosphere. […] After additional 2-3 h incubation, the absorbance of the formazan at 490 nm was measured by the microplate reader. […] Determination of non-viable cells using PI staining was performed by adding 1 μg/ml of PI solution (Sigma) to the cell culture, prior to the examination under fluorescence microscopy (Axiovert 3, Carl Zeiss) through a×32 objective equipped with a digital imaging processor (Infinity 3, Lumenera).
# [4] = system: HCT116, HT29, CCD841-CoN and Caco-2 cells; assay: Immunological detection of Puro-labeled proteins in cells; type: cell-based, human; settings: immunoblot; Boc-KAc-Puro 16.9 μM 20 h; Puro 2.1 μM 16 h
# Method: (§3) FIG. 27. Levels of Puro-incorporated proteins in the cells were monitored by immunoblotting. Indicated cell lines were treated either with vehicle control DMSO or Boc-KAc-Puro (16.9 μM) in the presence or absence of TSA (0.5 μM) for 20 h, followed by preparation of cell lysates. The lower panel (anti-α-Tubulin) serves as a loading control.
# as §3, with “28.” for “27.”, “Puro (2.1” for “Boc-KAc-Puro (16.9”, “16” for “20”, “lysates. […]” for “lysates.”
# Cultured cells or tissue samples were sonicated in RIPA lysis buffer (1% NP-40, 0.1% SDS, 50 mM Tris-HCl pH 7.4, 150 mM NaCl, 0.5% sodium deoxycholate, 1 mM EDTA) supplemented with PMSF and protease inhibitor cocktail (Roche) on ice followed by clarification. Protein lysates were separated on sodium dodecyl sulfate-polyacrylamide gels and transferred onto nitrocellulose membranes (Whatman). The primary antibodies used were anti-puromycin (3RH11, KeraFAST) and anti-α-tubulin (Sigma-Aldrich). Proteins of interest were detected with anti-mouse secondary antibody by chemiluminescence (ECL Kit, GE Healthcare Life Sciences).
compound,measurement,setting,value
O=C[C@H](Cc1ccc(O)cc1)NC(=O)[C@H](Cc1ccccc1)NC(=O)OCc1ccccc1 [Z-FY-CHO] (Cbz-Phe-Tyr-aldehyde),release of AMC from Boc-Lys-AMC,cathepsin L (CTSL),significantly blocked
same,activation of substrate Boc-Lys(Ac)-AMC (AMC release),[1]; TSA 1 μM,completely abrogated the activation of the substrate
"CC(=O)NCCCCC(NC(=O)OC(C)(C)C)C(=O)Nc1nc(=O)n([C@@H]2O[C@H](CO)[C@@H](O)[C@H]2O)cc1F (stereo partly drawn) [BKAc-5FCR, t-butyl (6-acetamido-1-((1-((2R,3R,4S,5R)-3,4-dihydroxy-5-(hydroxymethyl)tetrahydrofuran-2-yl)-5-fluoro-2-oxo-1,2-dihydropyrimidin-4-yl)amino)-1-oxohexan-2-yl)carbamate]",IC50,[2],2.6 µM
same,cytotoxic effect in the presence of HDAC inhibitor TSA,BXPC-3 cells,substantially compromised
same,difference in IC50 values shSki versus shGFP,BxPC3 shSki cells,two-fold
same,IC50,BxPC3 shSki cells,5.2 µM
CC(=O)NCCCC[C@H](NC(=O)OC(C)(C)C)C(=O)Nc1ccc2c(C)cc(=O)oc2c1 [Boc-Lys(Ac)-AMC],activation of substrate in live cells relative to total HDAC activity,"[1]; BxPC3, 25 μM, 2.5 hr, without cell lysis and trypsin",approximately 50%
"Nc1nc(=O)n([C@@H]2O[C@H](CO)[C@@H](O)[C@H]2O)cc1F [5FCR, 5-fluorocytidine, reference compound]",IC50,[2],1.3 µM
same,difference in IC50 values shSki versus shGFP,BxPC3 shSki cells,no significant changes
same,IC50,BxPC3 shSki cells,1.2 µM
"CC(/C=C/C(=O)NO)=C\[C@@H](C)C(=O)c1ccc(N(C)C)cc1 [TSA, Trichostatin A]",activation of substrate Boc-Lys(Ac)-AMC (AMC release),[1]; TSA 1 μM,completely inhibited activation
same,"AMC release, time course","[1]; BxPC3, 20 hr time course, TSA 1 μM",AMC release was inhibited
"COc1ccc(C[C@H](N)C(=O)N[C@H]2[C@@H](O)[C@H](n3cnc4c(N(C)C)ncnc43)O[C@@H]2CO)cc1 [Puro, puromycin, reference compound]",cell killing,[3],kill all of these cells examined
same,"intensity of Puro incorporation, malignant vs normal and non-malignant cells",[4],no difference
